The text below walks through data of patent publication US9856220B2 (AbbVie Deutschland GmbH & Co. KG, priority 2011, dated 2018).

Molecules are shown by their SMILES. Some results are limits rather than exact numbers.

In data set [1] the test system is rats. The conditions noted are these: cited from earlier work.
Data set [2] relates to rats. The conditions noted are these: cited from earlier work. The source holds these as a separate data set.
For data set [3], the system named is rats. The conditions noted are these: rat, in vivo; cited from earlier work.
A further data set deals with PDE10A (Homo sapiens (Human), UniProt Q9Y233). As to the kind of experiment: Measurement of PDE activity (recombinant PDE, cAMP HTRF). Format: biochemical. As to conditions: 20 nM cyclic nucleotide substrate, 60 minutes at 29 C. A digest of the protocol:
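Recombinant human PDE10A in 20 mM Tris-HCl pH 7.5, 10 mM MgCl2, 0.1% BSA with 20 nM cyclic nucleotide substrate; reaction 60 min at 29 C after compound preincubation with enzyme. Residual cAMP detected by HTRF (cAMP-d2/anti-cAMP cryptate); IC50 from inhibitor concentration versus PDE activity.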
(In general: Time-resolved FRET reads energy transfer from a long-lived donor to a nearby acceptor.)

The nature of data set [4]: Determination of the microsomal half-life / microsomal clearance, rat liver microsomes. Format: in vitro ADME. As to conditions: 0.5 μM test substance, 0.25 mg of microsomal protein/ml, pH 7.4, 37° C. Here is the method:
(§1) b) Determination of the Microsomal Half-Life:
(§2) The metabolic stability of the compounds of the invention was determined in the following assay.
(§3) The test substances were incubated in a concentration of 0.5 μM as follows:
(§4) 0.5 μM test substance are preincubated together with liver microsomes from different species (from rat, human or other species) (0.25 mg of microsomal protein/ml) in 0.05 M potassium phosphate buffer of pH 7.4 in microtiter plates at 37° C. for 5 min. The reaction is started by adding NADPH (1 mg/mL). After 0, 5, 10, 15, 20 and 30 min, 50 μl aliquots are removed, and the reaction is immediately stopped and cooled with the same volume of acetonitrile. The samples are frozen until analyzed. The remaining concentration of undegraded test substance is determined by MSMS. The half-life (T½) is determined from the gradient of the signal of test substance/unit time plot, it being possible to calculate the half-life of the test substance, assuming first order kinetics, from the decrease in the concentration of the compound with time. The microsomal clearance (mCl) is calculated from mCl=ln 2/T½/(content of microsomal protein in mg/ml)×1000 [ml/min/mg]

Data set [5] is described as follows: Determination of the microsomal half-life / microsomal clearance, human liver microsomes. It counts as in vitro ADME. The conditions noted are these: 0.5 μM test substance, 0.25 mg of microsomal protein/ml, pH 7.4, 37° C. Here is the method: as §1, §2, §3, §4

PDE10A, sequence (Q9Y233 whole entry, species assumed): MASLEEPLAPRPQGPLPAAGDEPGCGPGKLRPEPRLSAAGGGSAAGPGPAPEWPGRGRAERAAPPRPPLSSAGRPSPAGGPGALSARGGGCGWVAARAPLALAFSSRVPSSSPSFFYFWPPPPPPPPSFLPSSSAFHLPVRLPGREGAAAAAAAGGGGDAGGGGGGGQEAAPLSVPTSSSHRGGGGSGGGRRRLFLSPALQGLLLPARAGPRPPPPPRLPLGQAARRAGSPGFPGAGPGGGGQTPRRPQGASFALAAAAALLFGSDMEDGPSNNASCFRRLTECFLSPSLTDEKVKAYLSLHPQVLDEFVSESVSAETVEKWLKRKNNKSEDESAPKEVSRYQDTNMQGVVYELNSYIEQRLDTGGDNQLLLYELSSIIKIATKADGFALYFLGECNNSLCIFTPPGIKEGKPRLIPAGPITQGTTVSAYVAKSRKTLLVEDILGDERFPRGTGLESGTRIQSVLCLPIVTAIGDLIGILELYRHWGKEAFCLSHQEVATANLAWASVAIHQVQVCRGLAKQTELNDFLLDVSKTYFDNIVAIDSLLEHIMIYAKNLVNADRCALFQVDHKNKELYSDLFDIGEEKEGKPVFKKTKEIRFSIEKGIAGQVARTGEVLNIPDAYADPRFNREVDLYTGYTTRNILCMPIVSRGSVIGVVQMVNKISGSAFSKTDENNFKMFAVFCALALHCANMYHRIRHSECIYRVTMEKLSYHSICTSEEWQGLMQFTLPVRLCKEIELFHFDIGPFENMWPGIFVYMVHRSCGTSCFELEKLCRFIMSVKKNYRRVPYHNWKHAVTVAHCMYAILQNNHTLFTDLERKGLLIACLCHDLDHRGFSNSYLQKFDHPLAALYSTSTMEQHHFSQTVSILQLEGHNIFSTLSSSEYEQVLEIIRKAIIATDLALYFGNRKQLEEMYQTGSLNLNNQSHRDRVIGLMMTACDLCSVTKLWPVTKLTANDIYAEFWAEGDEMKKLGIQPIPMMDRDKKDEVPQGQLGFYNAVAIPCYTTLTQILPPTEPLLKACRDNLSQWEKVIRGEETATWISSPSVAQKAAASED

Consider `COc1ccc(Cc2nccc3cc(OC)c(OC)cc23)cc1OC` [Papaverine, papaverine], for which the “catalepsy on its own” value in the data set with rats [1] (compound alone) was “did not cause catalepsy on its own”. In the data set with rats [1] (with haloperidol), the “cataleptic effect of the D2 receptor antagonist haloperidol” value is “potentiated the cataleptic effect”. The “hyperactivity induced by PCP” value in the data set on rats [2] was “reduced hyperactivity”. Further, the “reduction of amphetamine-induced hyperactivity” value in the data set on rats [3] is reported as “insignificant”.

For `CCC(CC)n1cc(C(=O)NC2CC(=O)c3sccc32)c2cc(OC)c(OC)cc2c1=O` (stereo not shown) [Example 195, 2-(1-Ethyl-propyl)-6,7-dimethoxy-1-oxo-1,2-dihydro-isoquinoline-4-carboxylic acid (6-oxo-5,6-dihydro-4H-cyclopenta[b]thiophen-4-yl)-amide], the half-inhibitory concentration (IC50) (commonly the concentration that inhibits the measured activity by half) on PDE10A fell in the range of 100 to 200 nM. Also, the “Rat mCl” value in data set [4] is on record as “+ (100-220 μl min^−1 mg^−1)”. For the same compound, the “Human mCl” value in data set [5] was “+ (100-220 μl min^−1 mg^−1)”.

Consider `CCC(CC)n1cc(C(=O)NCc2ccc(C)o2)c2cc(OC)c(OC)cc2c1=O` [Example 251, 6,7-Dimethoxy-N-((5-methylfuran-2-yl)methyl)-1-oxo-2-(pentan-3-yl)-1,2-dihydroisoquinoline-4-carboxamide], for which the half-inhibitory concentration (IC50) at PDE10A was in the range of 100 to 200 nM. Also, the “Rat mCl” value in data set [4] is recorded as “∘ (>220 μl min^−1 mg^−1)”. Further, the “Human mCl” value in data set [5] is reported as “+ (100-220 μl min^−1 mg^−1)”.

Turning to `CCC(CC)n1cc(C(=O)NC2CCc3ncccc32)c2cc(OC)c(OC)cc2c1=O` (stereo not shown) [Example 186, 2-(1-Ethyl-propyl)-6,7-dimethoxy-1-oxo-1,2-dihydro-isoquinoline-4-carboxylic acid (6,7-dihydro-5H-[1]pyrindin-5-yl)-amide], the IC50 on PDE10A lay in the range of 100 to 200 nM. Further, the “Rat mCl” value in data set [4] is “++ (<100 μl min^−1 mg^−1)”. In data set [5], the “Human mCl” value is recorded as “++ (<100 μl min^−1 mg^−1)”.

In the case of `CCn1cc(C(=O)NCc2ccc(C3CC3)cc2)c2cc(OC)c(OC)cc2c1=O` [Example 318, N-[(4-Cyclopropylphenyl)methyl]-2-ethyl-6,7-dimethoxy-1-oxo-isoquinoline-4-carboxamide], the IC50 on PDE10A was in the range of 200 to 500 nM. Besides, in data set [4], the “Rat mCl” value was “++ (<100 μl min^−1 mg^−1)”. The “Human mCl” value in data set [5] is reported as “++ (<100 μl min^−1 mg^−1)”.

Consider `CCn1cc(C(=O)Nc2cccc(OC)c2)c2cc(OC)c(OC)cc2c1=O` [Example 147, 2-Ethyl-6,7-dimethoxy-N-(3-methoxyphenyl)-1-oxo-1,2-dihydroisoquinoline-4-carboxamide], for which the IC50 on PDE10A is 100 to 200 nM. In addition, in data set [4], the “Rat mCl” value is on record as “++ (<100 μl min^−1 mg^−1)”. In addition, in data set [5], the “Human mCl” value is “++ (<100 μl min^−1 mg^−1)”.

Turning to `CCC(CC)n1cc(C(=O)NCc2nncs2)c2cc(OC)c(OC)cc2c1=O` [Example 201, 2-(1-Ethyl-propyl)-6,7-dimethoxy-1-oxo-1,2-dihydro-isoquinoline-4-carboxylic acid ([1,3,4]thiadiazol-2-ylmethyl)-amide], the concentration for half-maximal inhibition (IC50) at PDE10A is 200 to 500 nM. For the same compound, the “Rat mCl” value in data set [4] was “++ (<100 μl min^−1 mg^−1)”. Moreover, the “Human mCl” value in data set [5] is recorded as “++ (<100 μl min^−1 mg^−1)”.

For `CCC(CC)n1cc(C(=O)NC2CCc3ncccc32)c2cc(OC)c(OC)cc2c1=O` (single isomer, unassigned; (+)) [Example 199, (+)-2-(1-Ethyl-propyl)-6,7-dimethoxy-1-oxo-1,2-dihydro-isoquinoline-4-carboxylic acid (6,7-dihydro-5H-[1]pyrindin-5-yl)-amide], the IC50 on PDE10A fell in the range of 200 to 500 nM. The “Rat mCl” value in data set [4] is recorded as “++ (<100 μl min^−1 mg^−1)”. Also, the “Human mCl” value in data set [5] is on record as “++ (<100 μl min^−1 mg^−1)”.

With `CCn1cc(C(=O)NCc2csc(C)n2)c2cc(OC)c(OC)cc2c1=O` [Example 316, 2-Ethyl-6,7-dimethoxy-N-[(2-methylthiazol-4-yl)methyl]-1-oxo-isoquinoline-4-carboxamide], at PDE10A, the IC50 was in the range of 200 to 500 nM. In addition, the “Rat mCl” value in data set [4] was “++ (<100 μl min^−1 mg^−1)”. The “Human mCl” value in data set [5] is recorded as “++ (<100 μl min^−1 mg^−1)”.

Turning to `CCn1cc(C(=O)NC2CCc3sccc32)c2cc(OC)c(OC)cc2c1=O` (stereo not shown) [Example 172, N-(5,6-Dihydro-4H-cyclopenta[b]thiophen-4-yl)-2-ethyl-6,7-dimethoxy-1-oxo-1,2-dihydroisoquinoline-4-carboxamide], the half-inhibitory concentration (IC50) on PDE10A is 100 to 200 nM. The “Rat mCl” value in data set [4] was “++ (<100 μl min^−1 mg^−1)”. Besides, the “Human mCl” value in data set [5] is listed as “++ (<100 μl min^−1 mg^−1)”.

As to `CCn1cc(C(=O)NC2CCc3sccc32)c2cc(OC)c(OC)cc2c1=O` (single isomer, unassigned; (-)) [Example 205, (−)-2-Ethyl-6,7-dimethoxy-1-oxo-1,2-dihydro-isoquinoline-4-carboxylic acid (5,6-dihydro-4H-cyclopenta[b]thiophen-4-yl)-amide], on PDE10A, the IC50 lay in the range of 200 to 500 nM. Moreover, the “Rat mCl” value in data set [4] is “++ (<100 μl min^−1 mg^−1)”. Moreover, in data set [5], the “Human mCl” value was “++ (<100 μl min^−1 mg^−1)”.

In the case of `CCC(CC)n1cc(C(=O)NCc2ncc(C)s2)c2cc(OC)c(OC)cc2c1=O` [Example 239, 6,7-Dimethoxy-N-((5-methylthiazol-2-yl)methyl)-1-oxo-2-(pentan-3-yl)-1,2-dihydroisoquinoline-4-carboxamide], on PDE10A, the IC50 was 100 to 200 nM. For the same compound, the “Rat mCl” value in data set [4] is given as “+ (100-220 μl min^−1 mg^−1)”. In data set [5], the “Human mCl” value was “+ (100-220 μl min^−1 mg^−1)”.

Regarding `CCC(CC)n1cc(C(=O)NC2CCc3ccc(OC)cc32)c2cc(OC)c(OC)cc2c1=O` (stereo not shown) [Example 256, 6,7-Dimethoxy-N-(6-methoxy-2,3-dihydro-1H-inden-1-yl)-1-oxo-2-(pentan-3-yl)-1,2-dihydroisoquinoline-4-carboxamide], the IC50 on PDE10A is under 100 nM. Moreover, the “Rat mCl” value in data set [4] was “+ (100-220 μl min^−1 mg^−1)”. Also, the “Human mCl” value in data set [5] is “∘ (>220 μl min^−1 mg^−1)”.

In the case of `CCC(CC)n1cc(C(=O)NCc2ccccc2S(=O)(=O)N2CCN(C)CC2)c2cc(OC)c(OC)cc2c1=O` [Example 219, 2-(1-Ethyl-propyl)-6,7-dimethoxy-1-oxo-1,2-dihydro-isoquinoline-4-carboxylic acid 2-(4-methyl-piperazine-1-sulfonyl)-benzylamide], the IC50 on PDE10A is under 100 nM. The “Rat mCl” value in data set [4] was “+ (100-220 μl min^−1 mg^−1)”. Further, the “Human mCl” value in data set [5] was “+ (100-220 μl min^−1 mg^−1)”.
